Laboratory results from ChEMBL document CHEMBL1138643, “Haloperidol: towards further understanding of the structural contributions of its pharmacophoric elements at D2-like receptors” (Bioorg Med Chem Lett, 2004).

Tests used:
[1] = Binding affinity for dopamine D3 receptor
[2] = Binding affinity for dopamine D2 receptor to that of dopamine D4 receptor
D(4) dopamine receptor = target: T1, D(4) dopamine receptor (Homo sapiens, UniProt P21917); test: Binding affinity for dopamine D4 receptor
T1 sequence (P21917 whole entry): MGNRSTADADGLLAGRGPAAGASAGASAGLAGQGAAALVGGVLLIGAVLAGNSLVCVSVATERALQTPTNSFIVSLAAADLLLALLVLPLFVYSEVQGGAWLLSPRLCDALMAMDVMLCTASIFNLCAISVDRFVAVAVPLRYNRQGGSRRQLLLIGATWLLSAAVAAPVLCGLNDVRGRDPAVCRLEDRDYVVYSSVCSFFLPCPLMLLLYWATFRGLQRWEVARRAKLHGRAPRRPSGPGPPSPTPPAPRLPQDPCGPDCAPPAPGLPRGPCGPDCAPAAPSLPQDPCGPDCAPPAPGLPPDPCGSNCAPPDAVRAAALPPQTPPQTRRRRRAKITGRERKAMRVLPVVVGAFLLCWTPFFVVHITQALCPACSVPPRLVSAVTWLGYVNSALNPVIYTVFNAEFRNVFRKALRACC

D(2) dopamine receptor = D(2) dopamine receptor (Homo sapiens, UniProt P14416)
D(2) dopamine receptor, sequence (P14416 whole entry): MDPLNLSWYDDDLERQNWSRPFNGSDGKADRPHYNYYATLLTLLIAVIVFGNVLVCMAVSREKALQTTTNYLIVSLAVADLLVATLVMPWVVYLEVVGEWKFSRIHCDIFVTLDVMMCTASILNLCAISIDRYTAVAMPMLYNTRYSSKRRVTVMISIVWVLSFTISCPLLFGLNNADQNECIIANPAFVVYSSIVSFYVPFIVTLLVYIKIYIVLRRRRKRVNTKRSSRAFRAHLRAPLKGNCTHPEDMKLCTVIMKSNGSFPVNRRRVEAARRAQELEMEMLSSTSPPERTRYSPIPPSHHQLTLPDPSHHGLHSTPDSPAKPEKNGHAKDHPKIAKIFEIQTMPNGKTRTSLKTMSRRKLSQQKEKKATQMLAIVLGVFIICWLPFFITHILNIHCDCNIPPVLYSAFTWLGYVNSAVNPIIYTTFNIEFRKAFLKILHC

| Compound | Ki [1] [nM] | Ratio [2] | Ki (D(4) dopamine receptor) [nM] | Ki (D(2) dopamine receptor) [nM] |
| --- | --- | --- | --- | --- |
| O=C(CN1C2CCC1CC(O)(c1ccc(Cl)cc1)C2)c1ccc(F)cc1 (stereo not drawn) | > 10000 |  |  |  |
| O=C(CCCN1C2CCC1CC(O)(c1ccc(Cl)cc1)C2)c1ccc(F)cc1 (stereo not drawn) |  | 0.03 |  |  |
| O=C(CCCN1CCN(c2ccc(Cl)cc2)CC1)c1ccc(F)cc1 |  |  | 17.5 |  |
| O=C(CCCN1C2CCC1CC(c1ccc(Cl)cc1)C2)c1ccc(F)cc1 (stereo not drawn) | 222 | 0.6 | 345 | 190 |
| O=C(CCCN1C2CCC1CC(O)(c1ccccc1)C2)c1ccc(F)cc1 (stereo not drawn) | 3.2 |  | 19.1 |  |
| O=C(CCCN1CCC(c2ccc(Cl)cc2)CC1)c1ccc(F)cc1 | 46 |  |  |  |
| O=C(CCCN1C2CCC1CC(c1ccccc1)C2)c1ccc(F)cc1 (stereo not drawn) | 51.4 | 0.7 | 177 |  |
